Here are results for one compound from patent US20190223443A1, “Methods to Increase Corn Growth” (Valent BioSciences LLC, priority 2015, published 2019).

The subject of this experiment is Hybrid 1 and Hybrid 2 corn. The experiment in a line: Field study, sprayed at V4, plant height (Examples 5 and 9). The format is in vivo. As for the experimental part: This study was conducted and the data analyzed as described above in Example 3 with the following the exceptions. The plants were sprayed at the V4 stage and plant height was measured at seven and 13 days post treatment.
Another study was conducted and the data analyzed as described Example 8, above, with the following the exceptions. The plants were sprayed at the V4 stage and plant height was measured at seven and 13 days post treatment. Results of this study are found in Table 11, below, describing shoot height in centimeters.

For the compound `C=C1C[C@]23C[C@@]1(O)CC[C@H]2[C@@]12C=C[C@H](O)[C@@](C)(C(=O)O1)[C@H]2[C@@H]3C(=O)O` [GA3, gibberellic acid], the “Plant height, 7 days post treatment” value reads like this: (Hybrid 1, Table 6, control 0:0 76.50) 78.60 cm; (Hybrid 2, Table 6, control 0:0 63.76) 68.25 cm. For the same compound, the “Plant height, 13 days post treatment” value is listed as 116.44 cm (Hybrid 1, Table 6, control 0:0 117.61) and 102.40 cm (Hybrid 2, Table 6, control 0:0 98.71). Further, the “Shoot height, 7 days post treatment” value runs as follows: (Hybrid 1, Table 11, control 0:0 76.50) 78.60 cm; (Hybrid 2, Table 11, control 0:0 63.76) 68.25 cm. The “Shoot height, 13 days post treatment” value amounted to 116.44 cm (Hybrid 1, Table 11, control 0:0 117.61) and 102.40 cm (Hybrid 2, Table 11, control 0:0 98.71).
